Experimental data: ChEMBL document CHEMBL2429758, “3-aroylmethylene-2,3,6,7-tetrahydro-1H-pyrazino[2,1-a]isoquinolin-4(11bH)-ones as potent Nrf2/ARE inducers in human cancer cells and AOM-DSS treated mice” (J Med Chem, 2013)
Calls of active or inactive are those of the source. No cut-off for these calls is given here.

Assays:
[1] = biological target: T1, Nuclear factor erythroid 2-related factor 2 (Homo sapiens) (UniProt Q16236); test: Induction of Nrf2-mediated ARE activity in human HepG2-ARE-C8 cells after 12 hrs by luciferase reporter gene assay; assay type: cell-based
T1 sequence (whole entry): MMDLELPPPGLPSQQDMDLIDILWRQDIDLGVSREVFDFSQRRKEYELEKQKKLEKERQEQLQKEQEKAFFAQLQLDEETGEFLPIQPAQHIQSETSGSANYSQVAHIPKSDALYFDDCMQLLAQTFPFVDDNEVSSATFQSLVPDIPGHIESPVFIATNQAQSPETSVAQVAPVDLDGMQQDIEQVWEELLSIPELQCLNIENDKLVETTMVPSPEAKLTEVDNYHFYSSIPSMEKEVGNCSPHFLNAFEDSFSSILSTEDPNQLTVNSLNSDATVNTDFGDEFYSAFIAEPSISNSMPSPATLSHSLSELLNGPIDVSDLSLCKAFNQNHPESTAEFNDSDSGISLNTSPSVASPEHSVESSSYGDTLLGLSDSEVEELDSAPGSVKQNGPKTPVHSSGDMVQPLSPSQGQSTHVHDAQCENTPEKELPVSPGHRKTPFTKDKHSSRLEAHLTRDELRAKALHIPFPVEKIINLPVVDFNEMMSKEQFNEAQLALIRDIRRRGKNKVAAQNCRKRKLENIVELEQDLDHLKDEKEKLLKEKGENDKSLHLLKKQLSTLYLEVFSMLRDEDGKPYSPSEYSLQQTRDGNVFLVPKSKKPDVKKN

Mus musculus [2] = test: Chemopreventive activity in azoxymethane dextran sodium sulfate C57BL/6 mouse model assessed as increase of lymphocyte ratio at 50 mg/kg/day treated with food measured after 130 days (reference value: 87.75 +/- 2.16%); assay type: functional
Mus musculus [3] = test: Chemopreventive activity in azoxymethane dextran sodium sulfate C57BL/6 mouse model assessed as reduction of developed dysplasia at 50 mg/kg/day treated with food measured after 130 days by hematoxylin and eosin staining; assay type: functional, organism-based
[4] = biological target: T1, Nuclear factor erythroid 2-related factor 2 (Homo sapiens); test: Induction of Nrf2-mediated ARE activity in human HepG2-ARE-C8 cells at 10 uM after 12 hrs by luciferase reporter gene assay relative to control; assay type: cell-based
HCT-116 [5] = test: Induction of NQO1 expression in human HCT116 cells at 10 uM by Western blot analysis; assay type: functional, cell-based; conditions: TDE = time-dependent effect
Mus musculus [6] = test: Chemopreventive activity in azoxymethane dextran sodium sulfate C57BL/6 mouse model assessed as reduction of multiplicity of tumor at 50 mg/kg/day treated with food measured after 130 days; assay type: functional, organism-based
[7] = biological target: T1, Nuclear factor erythroid 2-related factor 2 (Homo sapiens); test: Induction of Nrf2-mediated ARE activity in human HepG2-ARE-C8 cells at 5 uM after 12 hrs by luciferase reporter gene assay relative to control; assay type: cell-based
Mus musculus [8] = test: Chemopreventive activity in azoxymethane dextran sodium sulfate C57BL/6 mouse model assessed as reduction of neutrophils ratio at 50 mg/kg/day treated with food measured after 130 days (reference value: 12.73 +/- 1.65%); assay type: functional; design: scale not given: the % may be the effect or the level left
Mus musculus [9] = test: Chemopreventive activity in azoxymethane dextran sodium sulfate C57BL/6 mouse model assessed as reduction of length of colon at 50 mg/kg/day treated with food measured after 130 days (reference value: 5.62 +/- 0.69 centimeter); assay type: functional
Mus musculus [10] = test: Chemopreventive activity in azoxymethane dextran sodium sulfate C57BL/6 mouse model assessed as reduction of average size of tumor at 50 mg/kg/day treated with food measured after 130 days; assay type: functional
Mus musculus [11] = test: Antiinflammatory activity in azoxymethane dextran sodium sulfate C57BL/6 mouse model assessed as reduction of IL-6 expression at 50 mg/kg/day treated with food measured after 130 days by immunohistochemical analysis; assay type: functional, organism-based
Mus musculus [12] = test: Chemopreventive activity in azoxymethane dextran sodium sulfate C57BL/6 mouse model assessed as increase of WBC level at 50 mg/kg/day treated with food measured after 130 days (reference value: 5.33 +/- 1.34 10^9/L); assay type: functional
Mus musculus [13] = test: Chemopreventive activity in azoxymethane dextran sodium sulfate C57BL/6 mouse model assessed as induction of Nrf2 nuclear translocation at 50 mg/kg/day treated with food measured after 130 days immunofluorescence analysis; assay type: functional, organism-based
Mus musculus [14] = test: Toxicity in azoxymethane dextran sodium sulfate C57BL/6 mouse model assessed as change body weight at 50 mg/kg/day treated with food measured after 130 days; assay type: organism-based; conditions: in vivo, 3120 h
[15] = biological target: T1, Nuclear factor erythroid 2-related factor 2 (Homo sapiens); test: Induction of Nrf2-mediated ARE activity in human HepG2-ARE-C8 cells at 1 uM after 12 hrs by luciferase reporter gene assay relative to control; assay type: cell-based
HCT-116 [16] = test: Induction of HO-1 expression in human HCT116 cells up to 8 hrs by Western blot analysis; assay type: functional, cell-based
[17] = biological target: T1, Nuclear factor erythroid 2-related factor 2 (Homo sapiens); test: Induction of Nrf2-mediated ARE activity in human HepG2-ARE-C8 cells at 0.1 uM after 12 hrs by luciferase reporter gene assay relative to control; assay type: cell-based
Mus musculus [18] = test: Toxicity in azoxymethane dextran sodium sulfate C57BL/6 mouse model assessed as sign of toxicity at 50 mg/kg/day treated with food measured after 130 days; assay type: organism-based; conditions: in vivo, 3120 h
Mus musculus [19] = test: Chemopreventive activity in azoxymethane dextran sodium sulfate C57BL/6 mouse model assessed as reduction of tumor burden at 50 mg/kg/day treated with food measured after 130 days; assay type: functional, organism-based
[20] = biological target: T1, Nuclear factor erythroid 2-related factor 2 (Homo sapiens); test: Induction of Nrf2-mediated ARE activity in human HepG2-ARE-C8 cells at 0.01 uM after 12 hrs by luciferase reporter gene assay relative to control; assay type: cell-based
HCT-116 [21] = test: Induction of HO-1 expression in human HCT116 cells at 10 uM by Western blot analysis; assay type: functional, cell-based; conditions: TDE = time-dependent effect
Mus musculus [22] = test: Antiinflammatory activity in azoxymethane dextran sodium sulfate C57BL/6 mouse model assessed as reduction of IL-1beta expression at 50 mg/kg/day treated with food measured after 130 days by immunohistochemical analysis; assay type: functional, organism-based
HCT-116 [23] = test: Induction of NQO1 expression in human HCT116 cells up to 24 hrs by Western blot analysis; assay type: functional, cell-based
[24] = biological target: T1, Nuclear factor erythroid 2-related factor 2 (Homo sapiens); test: Induction of Nrf2 nuclear translocation in human HCT116 cells at 10 uM by Western blot analysis; assay type: cell-based; conditions: HCT-116
Mus musculus [25] = test: Chemopreventive activity in azoxymethane dextran sodium sulfate C57BL/6 mouse model assessed as reduction of tumor incidence at 50 mg/kg/day treated with food measured after 130 days; assay type: functional; design: scale not given: the % may be the effect or the level left

O=C(/C=C1\NCC2c3ccccc3CCN2C1=O)c1ccccc1 (stereo not given)
Activity [1]: Dose-dependent effect
Activity (Mus musculus [2]): 88.15%
Activity (Mus musculus [3]): Active
fold change (FC) [4]: 26.9
Activity (HCT-116 [5]): tde
Activity (Mus musculus [6]): Active
fold change (FC) [7]: 18.9
Activity (Mus musculus [8]): 12.39%
Activity (Mus musculus [9]): 4.59 cm
Activity (Mus musculus [10]): 2.2 mm
inhibition (Mus musculus [11]): Active
Activity (Mus musculus [12]): 5.67 ×10⁹ /L
Activity (Mus musculus [13]): Active
Activity (Mus musculus [14]): Non-toxic
fold change (FC) [15]: 9.51
Activity (HCT-116 [16]): Dose-dependent effect
fold change (FC) [17]: 5.44
Activity (Mus musculus [18]): Non-toxic
Activity (Mus musculus [19]): Active
fold change (FC) [20]: 2
Activity (HCT-116 [21]): tde
inhibition (Mus musculus [22]): Active
Activity (HCT-116 [23]): Dose-dependent effect
Activity [24]: Active
Activity (Mus musculus [25]): 50%
